Assay results from patent publication US20080188447A1, “Glucocorticoid-lowering composition” (priority 2007, published 2008).

Experiment: Daily food intake with subcutaneous steroid supplementation (Example 3)
Type: in vivo, rat
Details: group C (oral corn oil vehicle, no extract), steroid 5 mg/kg/day sc on days 4 and 5
Procedure: Male Wistar rats weighing about 250 g (2 groups designated as group C, control; and E, experimental treatment; 24 individuals per group) were kept as described in the Example 1 from day 1 to day 6 of the experiment. On days 1 through 4, a botanical extract from a plant Asclepias incarnata enriched with pregnane derivatives according to Formula (I) was administered orally in doses of 100 mg/kg body weight/day in 1 ml of corn oil (Sigma #C8267). As a negative control (vehicle), animals were administered orally with 1 ml of corn oil alone. On day 4 of the experiment both groups of animals C and E were further subdivided into 6 groups containing 4 animals each, designated C, control; PREG, pregnenolone; PROG, progesterone; DEOX, deoxycorticosterone; CORT, corticosterone; and DHEA, dehydroepiandrosterone. On day 4 and day 5, animals from these subgroups received a subcutaneous injection of 5 mg/kg body weight/day of the respective steroid compound in 5% DMSO and corn oil; total volume of 0.1 ml. The control animals in group C subgroup C and group E subgroup C received a subcutaneous injection of vehicle (5% DMSO in corn oil) only. On days 4 and 6 food intake was measured. […]

## C[C@]12C[C@H](O)[C@H]3[C@@H](CCC4=CC(=O)CC[C@@]43C)[C@@H]1CC[C@@H]2C(=O)CO [CORT, corticosterone]
  Daily food intake, Day 6: no direct effect on food intake alone
